# ChEMBL document CHEMBL5143654, “Synthesis and biological evaluation of marine natural product, Cryptoechinuline D derivatives as novel antiangiogenic agents” (Bioorg Med Chem Lett, 2022)
# Active and inactive are the calls of the source. No cut-off for these calls is given here.
# Legend:
# HUVEC [1] = test: Cytotoxicity against HUVEC cells assessed as cell viability at 50 uM measured after 24 hrs by MTT assay; type: functional; conditions: Homo sapiens, read-out: Activity
# HUVEC [2] = test: Anti-angiogenesis activity against HUVEC cells assessed as inhibition of horizontal migration at 5 to 10 uM measured after 8 hrs by wound healing assay; type: functional, cell-based; conditions: Homo sapiens, dose 5-10 µM
# HUVEC [3] = test: Antiproliferative activity against HUVEC assessed as decrease in number Edu-positive cells at 5 to 10 uM after 24 hrs by fluorescence microscopic analysis; type: functional, cell-based; conditions: Homo sapiens, dose 5-10 µM
# HUVEC [4] = test: Anti-angiogenesis activity against HUVEC cells assessed as decrease in Tie2 phosphorylation at Tyr1102/1100 level at 5 to 10 uM measured after 24 hrs by Western blot analysis; type: functional, cell-based; conditions: Homo sapiens, dose 5-10 µM
# HUVEC [5] = test: Anti-angiogenesis activity against HUVEC cells assessed as inhibition of cell migration at 5 to 10 uM measured after 24 hrs by Matrigel invasion assay; type: functional, cell-based; conditions: Homo sapiens, dose 5-10 µM
# HUVEC [6] = test: Anti-angiogenesis activity against HUVEC cells assessed as decrease in Ang2 level at 5 to 10 uM measured after 24 hrs by Western blot analysis; type: functional, cell-based; conditions: Homo sapiens, dose 5-10 µM
# HUVEC [7] = test: Anti-angiogenesis activity against HUVEC cells assessed as inhibition of vertical migration at 5 to 10 uM measured after 24 hrs by Transwell assay; type: functional, cell-based; conditions: Homo sapiens, dose 5-10 µM
# HUVEC [8] = test: Cytotoxicity against HUVEC cells assessed as inhibition of cell viability measured after 24 hrs by MTT assay; type: functional, cell-based; conditions: Homo sapiens
SMILES,viability at 50 µM (HUVEC [1]) [%],also measured
C=CC(C)(C)c1[nH]c2ccccc2c1/C=C1\NC(=O)[C@@]2(C[C@@H](C)C=C[C@H]2/C=C/c2c(OC(C)=O)cc(CC=C(C)C)c(O)c2/C=N\O)NC1=O (racemic),93,–
C=CC(C)(C)c1[nH]c2ccccc2c1/C=C1\NC(=O)[C@@]2(C[C@@H](C)C=C[C@H]2/C=C/c2c(OC(C)=O)cc(CC=C(C)C)c(OC(C)=O)c2COC(C)=O)NC1=O (racemic),83.2,–
C=CC(C)(C)c1[nH]c2ccccc2c1/C=C1\NC(=O)[C@@]2(C[C@@H](C)C=C[C@H]2/C=C/c2c(OC)cc(CC=C(C)C)c(OC)c2C=O)NC1=O (racemic),87.5,–
C=CC(C)(C)c1[nH]c2ccccc2c1/C=C1\NC(=O)[C@@]2(C[C@@H](C)C=C[C@H]2/C=C/c2c(OC(C)=O)cc(CC=C(C)C)c(OC(C)=O)c2/C=N\O)NC1=O (racemic),94.4,–
C=CC(C)(C)c1[nH]c2ccccc2c1/C=C1\NC(=O)[C@@]2(C[C@@H](C)C=C[C@H]2/C=C/c2c(OC(C)=O)cc(CC=C(C)C)c(OC(C)=O)c2C=O)NC1=O (racemic),5.33,inhibition (HUVEC [2]): Active; inhibition (HUVEC [3]): Active; inhibition (HUVEC [4]): Active; inhibition (HUVEC [5]): Active; inhibition (HUVEC [6]): Active; inhibition (HUVEC [7]): Active; IC50 (HUVEC [8]): 12.6 µM; inhibition (HUVEC [8]; DDE = dose-dependent effect): Dde
C=CC(C)(C)c1[nH]c2ccccc2c1/C=C1\NC(=O)[C@@]2(C[C@@H](C)C=C[C@H]2/C=C/c2c(O)cc(CC=C(C)C)c(O)c2C=O)NC1=O (racemic),82.1,–
C=CC(C)(C)c1[nH]c2ccccc2c1/C=C1\NC(=O)[C@@]2(C[C@@H](C)C=C[C@H]2/C=C/c2c(OC(C)=O)cc(CC=C(C)C)c(O)c2C#N)NC1=O (racemic),71.8,–
C=CC(C)(C)c1[nH]c2ccccc2c1/C=C1\NC(=O)[C@@]2(C[C@@H](C)C=C[C@H]2/C=C/c2c(OC)cc(CC=C(C)C)c(O)c2CN2CCCC2)NC1=O (racemic),81.6,–
C=CC(C)(C)c1[nH]c2ccccc2c1/C=C1\NC(=O)[C@@]2(C[C@@H](C)C=C[C@H]2/C=C/c2c(OC(C)=O)cc(CC=C(C)C)c(O)c2C=O)NC1=O (racemic),33.7,–
C=CC(C)(C)c1[nH]c2ccccc2c1/C=C1\NC(=O)[C@@]2(C[C@@H](C)C=C[C@H]2/C=C/c2c(OC(C)=O)cc(CC=C(C)C)c(O)c2CN(CC)CC)NC1=O (racemic),94.3,–
C=CC(C)(C)c1[nH]c2ccccc2c1/C=C1\NC(=O)[C@@]2(C[C@@H](C)C=C[C@H]2/C=C/c2c(O)cc(CC=C(C)C)c(OC)c2C=O)NC1=O (racemic),78.7,–
C=CC(C)(C)c1[nH]c2ccccc2c1/C=C1\NC(=O)[C@@]2(C[C@@H](C)C=C[C@H]2/C=C/c2c(OC)cc(CC=C(C)C)c(O)c2C=O)NC1=O (racemic),31.1,–
C=CC(C)(C)c1[nH]c2ccccc2c1/C=C1\NC(=O)[C@@]2(C[C@@H](C)C=C[C@H]2/C=C/c2c(OC(C)=O)cc(CC=C(C)C)c(O)c2CO)NC1=O (racemic),40.4,–
